Key:
Sprague-Dawley rats = assay: Intranasal delivery of gentamicin, serum gentamicin by fluorescence polarization immunoassay; format: in vivo; details: 5 mg/kg gentamicin, 1.32 mM enhancer
Description: Experimental Conditions: Sprague-Dawley rats (male, 205-240 g) were anesthetized by intramuscular injection of 7.5 mg/kg xylazine with 50 mg/kg ketamine. Gentamicin (40 μl) was administered intranasally at time 0. Formulations contained 5 mg/kg gentamicin, with and without 1.32 mM QH-957. Blood was withdrawn from the tail vein at various timepoints. Serum gentamicin levels were measured using a fluorescence polarization immunoassay. The assay was linear from 0.3-10.0 μg/ml, and the limit of detection was 0.3 μg/ml. A value of 0.3 μg/ml was used in plotting the timepoints with serum levels below the limit of detection. Groups of 3 animals were used. Data are presented as ±standard error of the mean.
Experimental Conditions: Sprague-Dawley rats (male, 205-240 g) were anesthetized by intramuscular injection of 7.5 mg/kg xylazine with 50 mg/kg ketamine. Gentamicin (40 μl) was administered intranasally at time 0. […] Serum gentamicin levels were measured using a fluorescence polarization immunoassay. […]
Sprague-Dawley rats (male, 205-240 g) were anesthetized by intramuscular injection of 7.5 mg/kg xylazine with 50 mg/kg ketamine. […] Serum gentamicin levels were measured using a fluorescence polarization immunoassay. […] The area under the serum gentamicin concentration curve (AUC) was calculated using the trapezoidal rule. […]

[1] = literature values; cited from earlier work
rabbits = details: nasal administration; cited from earlier work

| Structure (SMILES) | enhanced intranasal permeation of gentamicin (serum gentamicin levels) (Sprague-Dawley rats) | concentration needed for drug delivery [1] [mM] | total absorption of β-interferon relative to intravenous administration (rabbits) [%] |
| --- | --- | --- | --- |
| CC1(C)[C@@H](O[C@H]2O[C@H](C(=O)O)[C@@H](O)[C@H](O)[C@H]2O[C@@H]2O[C@H](C(=O)O)[C@@H](O)[C@H](O)[C@H]2O)CC[C@]2(C)[C@H]3C(=O)C=C4[C@@H]5C[C@@](C)(C(=O)O)CC[C@]5(C)CC[C@@]4(C)[C@]3(C)CC[C@@H]12 [glycyrrhizic acid] | did not | 23.8 |  |
| C[C@H](CCC(=O)NCC(=O)[O-])[C@H]1CC[C@H]2[C@@H]3[C@H](O)C[C@@H]4C[C@H](O)CC[C@]4(C)[C@H]3C[C@H](O)[C@]12C.[Na+] [sodium glycocholate] | did not | 20.5 | 2.2 |
